Where “and” joins values, the source holds several entries; their conditions need not be identical. Equal entries are not always repeated.
target: T1, calmodulin (Homo sapiens, UniProt P0DP23); assay: Calmodulin-dependent phosphodiesterase (CaMPDE) assay; assay type: biochemical; conditions: 53 individual compounds, Table 17
T1 construct: purchased Boehringer Mannheim (calmodulin); Sigma (PDE, 5'-nucleotidase)
Protocol: An example of an assay that identifies CaM antagonists is a CaMPDE assay, such as the one whose results are shown in Examples IX to XII, below. Samples are mixed with 50 μl of assay buffer (360 mM Tris, 360 mM Imidazole, 45 mM Mg(CH3COO)2, pH 7.5) and 10 μl of CaCl2 (4.5 mM) to a final volume of 251 μl. 25 μl of calmodulin stock solution (Boehringer Mannheim; 0.01 μg/μl) is then added and the samples then sit at room temperature for 10 minutes. 14 μl of PDE (Sigma; 2 Units dissolved in 4 ml of water; stock concentration: 0.0005 Units/μl) is then added, followed by 50 μl of 5′-nucleotidase (Sigma; 100 Units dissolved in 10 ml of 10 mM Tris-HCl containing 0.5 mM Mg(CH3COO)2, pH 7.0; stock concentration: 10 Units/ml). The samples are then incubated for 10 minutes at 30° C. 50 μl of adenosine 3′,5′-cyclic monophosphate (cAMP) (20 mM in water at pH 7.0) is added, the samples incubated for 1 hour at 30° C. and then vortexed. 200 μl of trichloroacetic acid (TCA) (55% in water) is added to a 200 μl sample aliquot, which is then vortexed and centrifuged for 10 minutes. 80 μl of the resulting supernatants of each sample is transferred to a 96-well plate, with 2 wells each containing 80 μl of each sample. 80 μl of ammonium molybdate (1.1% in 1.1N H2SO4) is then added to all the wells, and the OD of each were determined at 730 nm, with the values later subtracted to the final OD reading. 16 μl of reducing agent (6 g sodium bisulfite, 0.6 g sodium sulfite and 125 mg of 1-amino-2-naphtol-4-sulfonic acid in 50 ml of water) is then added to one of each sample duplicate and 16 μl of water is added to the other duplicate. After sitting for 1 hour at room temperature, the OD of each well is determined at 730 nm. […]

| SMILES | IC50 |
| --- | --- |
| CC(C)(C)C1CCC(CN2C3=NC[C@@H](C4CCCCC4)N3C[C@H]2C2CCCCC2)CC1 (some centres unmarked) | 15.5 µM |
| CC(C)(C)C1CCC(CN2C3=NC[C@H](C4CCCCC4)N3C[C@H]2C2CCCCC2)CC1 (some centres unmarked) | 13.1 µM |
| CC(C)(C)C1CCC(CN2C3=NC[C@H](C4CCCCC4)N3C[C@@H]2C2CCCCC2)CC1 (some centres unmarked) | 14.6 µM |
| CC(C)(C)C1CCC(CN2C3=NC[C@H](Cc4ccccc4)N3C[C@@H]2Cc2ccccc2)CC1 (some centres unmarked) | 21.5 µM |
| C1CCC(CC2CN3C(=NCC3C3CCCCC3)N2CCC23CC4CC(CC(C4)C2)C3)CC1 (single isomer, unassigned) [D-chg/D-cha/1-adamantaneacetic acid] | 15.1 µM |
| C1CCC(C2CN3C(=NCC3C3CCCCC3)N2CCC23CC4CC(CC(C4)C2)C3)CC1 (single isomer, unassigned) [D-chg/D-chg/1-adamantaneacetic acid] | 21.5 µM |
| C1CCC(CC2CN3C(=NCC3C3CCCCC3)N2CCC23CC4CC(CC(C4)C2)C3)CC1 (single isomer, unassigned) [D-chg/L-Cha/1-adamantaneacetic acid] | 4.74 µM and 6.46 µM |
| C1CCC(CC2CN3C(=NCC3C3CCCCC3)N2CCC23CC4CC(CC(C4)C2)C3)CC1 (single isomer, unassigned) [L-Chg/L-Cha/1-adamantaneacetic acid] | 13.4 µM and 25.8 µM |
| C1CCC(C2CN3C(=NCC3C3CCCCC3)N2CCC23CC4CC(CC(C4)C2)C3)CC1 (single isomer, unassigned) [L-Chg/L-Chg/1-adamantaneacetic acid] | 19.8 µM |
| CCN1C2=NC[C@@H](C)N2C[C@@H]1Cc1ccccc1 [D-ala/L-Phe/acetic acid] | 40.1 µM |
| C1CCC(C[C@@H]2CN=C3N2C[C@@H](C2CCCCC2)N3CCC23CC4CC(CC(C4)C2)C3)CC1 [D-cha/D-chg/1-adamantaneacetic acid] | 17.4 µM |
| C1CCC(CCCN2C3=NC[C@@H](C4CCCCC4)N3C[C@@H]2CC2CCCCC2)CC1 [D-chg/L-Cha/cyclohexylpropionic acid] | 15.7 µM |
| C1CCC(C[C@H]2CN=C3N2C[C@H](C2CCCCC2)N3CCC23CC4CC(CC(C4)C2)C3)CC1 [L-Cha/L-Chg/1-adamantaneacetic acid] | 16.2 µM |
| CC(C)C[C@@H]1CN2C(=NC[C@@H]2C2CCCCC2)N1CCC12CC3CC(CC(C3)C1)C2 [L-Chg/D-leu/1-adamantaneacetic acid] | 16.9 µM |
| CC(C)C[C@@H]1CN2C(=NC[C@@H]2C2CCCCC2)N1CCCC1CCCCC1 [L-Chg/D-leu/cyclohexylpropionic acid] | 25.2 µM |
| CCN1C2=NC[C@H](Cc3ccccc3)N2C[C@H]1Cc1c[nH]c2ccccc12 [L-Phe/D-trp/acetic acid] | 19.5 µM |
| c1ccc(C[C@H]2CN=C3N(CCC45CC6CC(CC(C6)C4)C5)[C@@H](Cc4ccccc4)CN32)cc1 [L-Phe/L-Phe/1-adamantaneacetic acid] | 16.7 µM |
| c1ccc(CC2CN3C(=NCC3Cc3ccccc3)N2CCc2ccc(-c3ccccc3)cc2)cc1 [L-Phe/L-Phe/4-biphenylacetic acid] | 14.1 µM |
| c1ccc(CC2CN3C(=NCC3Cc3ccccc3)N2CCCC2CCCCC2)cc1 [L-Phe/L-Phe/cyclohexylpropionic acid] | 21.5 µM |
| CCN1C2=NC[C@H](Cc3ccccc3)N2C[C@@H]1Cc1c[nH]c2ccccc12 [L-Phe/L-Trp/acetic acid] | 24.8 µM |

Other lines, results leading:

| IC50 | SMILES |
| --- | --- |
| 4.43 µM | CC(C)(C)C1CCC(CN2C3=NC[C@@H](CC4CCCCC4)N3C[C@H]2CC2CCCCC2)CC1 (some centres unmarked) |
| 4.73 µM | CC(C)(C)C1CCC(CN2C3=NC[C@@H](CC4CCCCC4)N3C[C@H]2C2CCCCC2)CC1 (some centres unmarked) |
| 2.81 µM | CC(C)(C)C1CCC(CN2C3=NC[C@@H](CC4CCCCC4)N3C[C@@H]2CC2CCCCC2)CC1 (some centres unmarked) |
| 4.71 µM | CC(C)(C)C1CCC(CN2C3=NC[C@@H](CC4CCCCC4)N3C[C@@H]2C2CCCCC2)CC1 (some centres unmarked) |
| 10.7 µM | CC(C)(C)C1CCC(CN2C3=NC[C@@H](C4CCCCC4)N3C[C@@H]2C2CCCCC2)CC1 (some centres unmarked) |
| 1.89 µM | CC(C)(C)C1CCC(CN2C3=NC[C@H](CC4CCCCC4)N3C[C@H]2CC2CCCCC2)CC1 (some centres unmarked) |
| 3.98 µM | CC(C)(C)C1CCC(CN2C3=NC[C@H](CC4CCCCC4)N3C[C@H]2C2CCCCC2)CC1 (some centres unmarked) |
| 2.24 µM | CC(C)(C)C1CCC(CN2C3=NC[C@H](CC4CCCCC4)N3C[C@@H]2CC2CCCCC2)CC1 (some centres unmarked) |
| 10.1 µM | CC(C)(C)C1CCC(CN2C3=NC[C@H](CC4CCCCC4)N3C[C@@H]2C2CCCCC2)CC1 (some centres unmarked) |
| 8.65 µM | CC(C)(C)C1CCC(CN2C3=NCC(C4CCCCC4)N3CC2CC2CCCCC2)CC1 (single isomer, unassigned) [listing 1 of 4 here] |
| 3.19 µM | CC(C)(C)C1CCC(CN2C3=NCC(C4CCCCC4)N3CC2CC2CCCCC2)CC1 (single isomer, unassigned) [listing 2 of 4 here] |
| 2.4 µM | CC(C)(C)C1CCC(CN2C3=NCC(C4CCCCC4)N3CC2CC2CCCCC2)CC1 (single isomer, unassigned) [listing 3 of 4 here] |
| 5.21 µM | CC(C)(C)C1CCC(CN2C3=NCC(C4CCCCC4)N3CC2CC2CCCCC2)CC1 (single isomer, unassigned) [listing 4 of 4 here] |
| 10.2 µM | C1CCC(CC2CN3C(=NCC3CC3CCCCC3)N2CCC23CC4CC(CC(C4)C2)C3)CC1 (single isomer, unassigned) [D-cha/D-cha/1-adamantaneacetic acid] |
| 3.97 µM | C1CCC(CC2CN3C(=NCC3CC3CCCCC3)N2CCC23CC4CC(CC(C4)C2)C3)CC1 (single isomer, unassigned) [D-cha/L-Cha/1-adamantaneacetic acid] |
| 12.9 µM | C1CCC(C2CN3C(=NCC3C3CCCCC3)N2CCC23CC4CC(CC(C4)C2)C3)CC1 (single isomer, unassigned) [D-chg/L-Chg/1-adamantaneacetic acid] |
| 2.25 µM | C1CCC(CC2CN3C(=NCC3CC3CCCCC3)N2CCC23CC4CC(CC(C4)C2)C3)CC1 (single isomer, unassigned) [L-Cha/D-cha/1-adamantaneacetic acid] |
| 7.86 µM | C1CCC(CC2CN3C(=NCC3CC3CCCCC3)N2CCC23CC4CC(CC(C4)C2)C3)CC1 (single isomer, unassigned) [L-Cha/L-Cha/1-adamantaneacetic acid] |
| 2.83 µM | C1CCC(CC2CN3C(=NCC3C3CCCCC3)N2CCC23CC4CC(CC(C4)C2)C3)CC1 (single isomer, unassigned) [L-Chg/D-cha/1-adamantaneacetic acid] |
| 4.61 µM | C1CCC(C2CN3C(=NCC3C3CCCCC3)N2CCC23CC4CC(CC(C4)C2)C3)CC1 (single isomer, unassigned) [L-Chg/D-chg/1-adamantaneacetic acid] |
| 10.1 µM | C1CCC(C[C@@H]2CN=C3N2C[C@H](C2CCCCC2)N3CCC23CC4CC(CC(C4)C2)C3)CC1 [D-cha/L-Chg/1-adamantaneacetic acid] |
| 6.11 µM | C1CCC(C[C@H]2CN=C3N2C[C@@H](C2CCCCC2)N3CCC23CC4CC(CC(C4)C2)C3)CC1 [L-Cha/D-chg/1-adamantaneacetic acid] |
| 12.5 µM | O=[N+]([O-])c1ccc(CCN2C3=NC[C@H](Cc4ccccc4)N3C[C@@H]2Cc2ccccc2)c([N+](=O)[O-])c1 [L-Phe/L-Phe/2,4-dinitrophenylacetic acid] |
| 6.98 µM | c1ccc(CC2CN3C(=NCC3Cc3ccccc3)N2CCCCC2CCCCC2)cc1 [L-Phe/L-Phe/cyclohexylbutyric acid] |

Reference: patent US6359144B1, “Combinatorial libraries of bicyclic guanidine derivatives and compounds therein” (Lion Bioscience AG, priority 1997, dated 2002)
